The values that follow come from paper PMC8064294 (Journal of medicinal chemistry, 2020).

In series [1] the target is T1, recombinant human ULK1 protein (1-649) (Homo sapiens, UniProt O75385).
T1 sequence (O75385 1-649): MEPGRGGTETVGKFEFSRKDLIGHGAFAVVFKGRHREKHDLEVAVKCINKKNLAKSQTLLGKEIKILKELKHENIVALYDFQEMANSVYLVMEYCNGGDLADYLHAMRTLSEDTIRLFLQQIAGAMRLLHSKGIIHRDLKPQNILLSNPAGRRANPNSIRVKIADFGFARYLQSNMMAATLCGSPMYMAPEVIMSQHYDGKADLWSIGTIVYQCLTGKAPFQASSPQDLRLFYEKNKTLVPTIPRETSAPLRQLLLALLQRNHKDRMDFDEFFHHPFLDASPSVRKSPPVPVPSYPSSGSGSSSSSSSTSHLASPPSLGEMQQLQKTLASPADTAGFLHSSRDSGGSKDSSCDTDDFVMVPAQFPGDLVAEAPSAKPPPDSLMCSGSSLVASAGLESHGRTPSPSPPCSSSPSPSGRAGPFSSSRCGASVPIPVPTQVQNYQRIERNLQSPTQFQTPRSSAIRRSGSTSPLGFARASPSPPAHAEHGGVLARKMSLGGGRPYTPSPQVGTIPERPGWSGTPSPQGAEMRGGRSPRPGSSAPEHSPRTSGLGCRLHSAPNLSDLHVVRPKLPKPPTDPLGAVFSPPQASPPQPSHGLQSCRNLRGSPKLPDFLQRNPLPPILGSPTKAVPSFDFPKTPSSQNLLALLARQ
As to the kind of experiment: ULK1 ADP-Glo kinase assay. The class given is biochemical. The settings on record: for ULK1 ADP-Glo potency compared with compound 3: in words. For orientation: ADP-Glo first removes unused ATP, then detects ADP through luciferase.

Series [2] addresses T2, ULK1 (NanoLuc-ULK1 fusion) (Homo sapiens, UniProt O75385).
T2 sequence (O75385 1-1050): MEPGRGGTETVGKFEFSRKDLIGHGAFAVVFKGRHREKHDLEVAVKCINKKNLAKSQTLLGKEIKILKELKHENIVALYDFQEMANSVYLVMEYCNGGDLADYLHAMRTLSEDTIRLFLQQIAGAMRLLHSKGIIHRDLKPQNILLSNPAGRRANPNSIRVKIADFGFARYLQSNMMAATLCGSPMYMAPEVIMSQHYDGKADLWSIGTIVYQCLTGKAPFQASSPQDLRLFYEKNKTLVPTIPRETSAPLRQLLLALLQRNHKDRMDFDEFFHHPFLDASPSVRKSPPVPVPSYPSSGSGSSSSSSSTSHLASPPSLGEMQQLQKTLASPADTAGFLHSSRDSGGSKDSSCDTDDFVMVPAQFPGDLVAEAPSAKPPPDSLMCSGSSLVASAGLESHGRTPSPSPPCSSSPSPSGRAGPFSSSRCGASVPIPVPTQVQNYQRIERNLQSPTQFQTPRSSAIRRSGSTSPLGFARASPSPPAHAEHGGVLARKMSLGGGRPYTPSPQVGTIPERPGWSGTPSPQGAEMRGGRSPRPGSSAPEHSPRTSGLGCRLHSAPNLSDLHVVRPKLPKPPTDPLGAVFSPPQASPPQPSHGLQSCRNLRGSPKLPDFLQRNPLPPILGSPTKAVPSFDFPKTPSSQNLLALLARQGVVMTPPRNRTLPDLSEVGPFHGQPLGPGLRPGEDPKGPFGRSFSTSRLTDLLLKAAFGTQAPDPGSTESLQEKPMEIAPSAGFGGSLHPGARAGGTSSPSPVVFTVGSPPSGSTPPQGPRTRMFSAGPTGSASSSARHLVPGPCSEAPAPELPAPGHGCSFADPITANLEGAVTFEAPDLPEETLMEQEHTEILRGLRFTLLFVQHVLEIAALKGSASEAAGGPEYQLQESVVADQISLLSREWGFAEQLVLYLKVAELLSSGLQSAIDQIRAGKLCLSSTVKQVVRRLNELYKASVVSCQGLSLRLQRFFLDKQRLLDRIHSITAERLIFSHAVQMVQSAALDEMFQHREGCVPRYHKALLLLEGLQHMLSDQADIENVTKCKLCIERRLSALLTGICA
Description: ULK1 NanoBRET intracellular kinase target engagement assay in HEK293T cells. The class given is cell-based. The settings on record: HEK293T live cells.

A further series in a line: Kinetic solubility. The class given is physicochemical.
Series [3] has as its system autophagic flux in MDA-MB-468 cells expressing mCherry-EGFP-LC3. As to the kind of experiment: mCherry-GFP-LC3 FACS autophagic flux assay. The class given is cell-based, human. The settings on record: 48 h.
In a further series the test system is MDA-MB-468 cells. Description: Combination dose-response matrix with PARP inhibitors, Combenefit Loewe model. The class given is cell-based, human. The settings on record: combination with niraparib; synergy at 26 0.19–1.7 μM and niraparib 3.8–7.5 μM.
The test system of series [4] is pATG13 (Ser318), ATG13 and ULK1 in liver lysates. Description: PD study, in vivo target engagement in mouse liver. Particulars: mice, 10 mg/kg oral gavage, 2 h post dosing.
Series [5] deals with autophagosomes in MDA-MB-468 cells. As to the kind of experiment: TEM imaging of autophagosomes. The class given is cell-based, human. Particulars: EBSS starved cells, 10 μM.
A short description of series [6]: PK study in mice, plasma concentration by LC-MS/MS. Particulars: single oral dose 30 mg/kg.
The conditions of series [7]: mice, stated as noted previously, no data shown, cited from earlier work.

With `FC(F)(F)c1cnc(Nc2ccc3ncoc3c2)nc1NC1CC1` [compound 15, N^2-(Benzo[d]oxazol-6-yl)-N^4-cyclopropyl-5-(trifluoromethyl)pyrimidine-2,4-diamine], in series [1], the “ULK1 ADP-Glo potency compared with compound 3” value is “approximately equipotent with 3”.

Regarding `Nc1ccc(Nc2ncc(C(F)(F)F)c(NC3CC3)n2)cc1` [compound 23, N^2-(4-Aminophenyl)-N^4-cyclopropyl-5-(trifluoro-methyl)-pyrimidine-2,4-diamine], in series [2], the “ULK1 NanoBRET IC50 (range in words)” value was “sub-micromolar range”. Regarding `O=C1CCCc2cc(Nc3ncc(C(F)(F)F)c(NC4CC4)n3)ccc21` [compound 19, 6-((4-(Cyclopropylamino)-5-(trifluoromethyl)pyrimidin-2-yl)amino)-3,4-dihydronaphthalen-1(2H)-one], the “solubility in PBS (in words)” value in the series “Kinetic solubility” is listed as “limited solubility”.

Consider `FC(F)(F)c1cnc(Nc2ccc3ncccc3c2)nc1NC1CC1` [compound 16, N^4-Cyclopropyl-N^2-(quinolin-6-yl)-5-(trifluoromethyl)-pyrimidine-2,4-diamine], for which, in [2], the “ULK1 NanoBRET IC50 (range in words)” value is listed as “sub-micromolar range”.

Take `FC(F)(F)c1cnc(Nc2ccc3nn[nH]c3c2)nc1NC1CC1` [compound 10, N^2-(1 H-Benzo[d][1,2,3]triazol-6-yl)-N^4-cyclopropyl-5-(trifluoromethyl)pyrimidine-2,4-diamine]: in series [1], the “fold more potent than compound 3 in ULK1 ADP-Glo” value is reported as “about 4 fold”. `O=C(c1cc(Cc2n[nH]c(=O)c3ccccc23)ccc1F)N1CCN(C(=O)C2CC2)CC1` [olaparib, reference compound]: in series [3] (30 μM), the “increase in autophagic flux compared with control cells” value was “approximately 30%”.

Consider `COc1ccc(Nc2ncc(C(F)(F)F)c(NC3CC3)n2)cc1OC` [compound 26, N^4-Cyclopropyl-N^2-(3,4-dimethoxyphenyl)-5-(trifluoromethyl)pyrimidine-2,4-diamine], for which the “effect on olaparib-induced increase in autophagic flux” value in series [3] (10 μM with olaparib 30 μM) is “significantly suppressed the olaparib-induced increase in autophagic flux to a level similar to that observed in untreated control cells”. In addition, the “maximum synergy score (Loewe)” value in the series with MDA-MB-468 cells came to 26. In addition, in series [4], the “effect on pATG13 (Ser318) in liver” value was “robust inhibition of pATG13 (Ser318)”; the “effect on total ATG13 and ULK1 levels in liver” value was “downregulation of total ATG13 and ULK1 levels”. For the same compound, the “ULK1 NanoBRET IC50 (range in words)” value in series [2] is “sub-micromolar range”. Further, in series [5], the “number of autophagosomes by TEM” value is given as “decreased the number of autophagosomes to a greater extent than SBI-0206965”. Moreover, in series [6], the “Cmax relative to ULK1 NanoBRET IC50” value is “about 3 fold”. With `FC(F)(F)c1cnc(Nc2ccc3[nH]ccc3c2)nc1NC1CC1` [compound 8, N^4-Cyclopropyl-N^2-(1H-indol-5-yl)-5-(trifluoromethyl)-pyrimidine-2,4-diamine], the “ULK1 ADP-Glo potency compared with compound 3” value in series [1] is given as “approximately equipotent with 3”. As to `CNC(=O)c1ccccc1Oc1nc(Nc2cc(OC)c(OC)c(OC)c2)ncc1Br` [compound 1], the systemic exposure result in series [7] (ip dosing) is recorded as “poor systemic exposure”. The oral bioavailability entry in series [7] is “no measurable oral bioavailability”. As to `FC(F)(F)c1cnc(Nc2cnc3[nH]ccc3c2)nc1NC1CC1` [compound 11, N^4-Cyclopropyl-N^2-(1H-pyrrolo[2,3-b]pyridin-5-yl)-5-(trifluoromethyl)pyrimidine-2,4-diamine], the “ULK1 ADP-Glo potency compared with compound 3” value in [1] was “approximately equipotent with 3”. The “solubility in PBS (in words)” value in the series “Kinetic solubility” is on record as “limited solubility”.
